Laboratory results published in patent US20210116454A1, “METHODS FOR TREATING A HEMATOLOGICAL CANCER AND THE USE OF COMPANION BIOMARKERS FOR 2-(2,6-DIOXOPIPERIDIN-3-YL)-4-((2-FLUORO-4-((3-MORPHOLINOAZETIDIN-1-YL)METHYL)BENZYL)AMINO)ISOINDOLINE-1,3-DIONE” (CELGENE CORPORATION, priority 2019, published 2021).
Read-outs that look alike come from different tables or passages of the source. One block for each compound: values may come before it.

Columns and labels:
cereblon (CRBN) = cereblon (CRBN) (Homo sapiens, UniProt Q96SW2); assay: Cereblon binding TR-FRET ligand competition assay; conditions: 10 to 20 minutes, n=5
Experimental: To investigate whether Compound 1 and its R-enantiomer Compound 2 could bind to cereblon, a short duration (10 to 20 minutes) ligand competition assay was used.

SU-DHL-4 [1] = assay: CellTiter-Glo (CTG) antiproliferative assay, 5-day; assay type: cell-based; conditions: for antiproliferative activity (in words): SU-DHL-4, CellTiter-Glo
Experimental: To evaluate the activity of both Compound 1 and Compound 2 in DLBCL cells, a CellTiter-Glo (CTG) assay was performed to measure the antiproliferative activity.

ZFP91 = target: T1, ZFP91 (Homo sapiens, UniProt Q96JP5+Q96SW2); assay: ePL-tagged substrate degradation kinetics in DF15 cells (enantiomer comparison); assay type: cell-based; parameters: ZFP91 Y-constant: scale not given here; conditions: for DC50: read-out: ZFP91 EC50
T1 construct: expressed in transfected cells; host or cells: DF15 cells
Experimental: (§1) In a second assay, DF15 cell lines expressing ePL-tagged target protein substrates were used as a model system to monitor protein degradation at 0.75, 1, 1.5, 3, 4, and 24 hours over a concentration range from 1 pM to 10 μM. The proteins evaluated were Ikaros (FIG. 17), Aiolos, and ZFP91. Compound 1 and Compound 2 were both able to degrade the substrate proteins at all time points (Table 9). In a further assay, additional time points were included to monitor the effect of treatment with Compound 1 and Compound 2.
(§2) The depth of substrate protein degradation described by the Y-constant was also measured in this assay against a negative control luciferase inhibitor (CC1071297, Y-constant=0).

Aiolos = target: T2, Aiolos (Homo sapiens, UniProt Q96SW2+Q9UKT9); assay: as above; assay type: cell-based; parameters: Aiolos Y-constant: scale not given here; conditions: for DC50: read-out: Aiolos EC50
T2 construct: expressed in transfected cells; host or cells: DF15 cells
Experimental: as §1, §2

SU-DHL-2 cells = assay: Western blot of substrate degradation by each enantiomer, short time-course; assay type: cell-based; conditions: SU-DHL-2, higher concentrations and longer exposure
Experimental: Pure samples of each enantiomer were tested for cellular degradation of substrate proteins measured over a short time-course (FIG. 16). SU-DHL-2 cells were treated for 1, 2, and 6 hours with vehicle control (0.1% DMSO), Compound 1 (1, 10, 100 nM), or Compound 2 (1, 10, 100 nM). Western blot analysis was used to evaluate the extent of degradation of the protein substrates Aiolos, Ikaros, and ZFP91. Compound 1 inhibited Aiolos, Ikaros, and ZFP91 in as early as 1 hour of treatment with as little as 1 nM.

Ikaros = Ikaros (Homo sapiens, UniProt Q13422+Q96SW2); assay: ePL-tagged substrate degradation kinetics in DF15 cells (enantiomer comparison); assay type: cell-based; parameters: expressed in transfected cells; host or cells: DF15 cells; Ikaros Y-constant: scale not given here; conditions: for DC50: read-out: Ikaros EC50
Experimental: as §1, §2

KARPAS-422 = assay: 5-day viable cell number and apoptosis (7-AAD exclusion/Annexin V flow cytometry); assay type: cell-based; conditions: Homo sapiens; KARPAS-422 cells (Table 3); read-out: IC50
Excerpt: (§3) The DLBCL panel includes seven cell lines classified as activated B-cell (ABC) subtype, thirteen cell lines classified as the germinal center B-cell (GCB) subtype, and three cell lines classified as primary mediastinal B-cell lymphoma (PMBL). […] The translocation of MYC, BCL6, or BCL2 to an IG locus usually leads to high levels of mRNA and protein due to the active transcription driven by a constitutively active IG promoter. […] Expressions of CRBN protein and known substrates, Ikaros, Aiolos, and ZFP91 were also evaluated (FIG. 1, panels B and C).
(§4) The panel of cell lines were treated with increasing doses of compounds for five days, at which time the number of viable cells was measured and the amount of apoptosis was determined by 7-AAD exclusion and Annexin V staining using flow cytometry.

U2932 = assay: as above; assay type: cell-based; conditions: Homo sapiens; U2932 cells (Table 3); read-out: IC50
Excerpt: as §3, §4

SU-DHL-4 [2] = assay: as above; assay type: cell-based; conditions: Homo sapiens; SU-DHL-4 cells (Table 3); read-out: IC50
Excerpt: as §3, §4

SU-DHL-2 = assay: as above; assay type: cell-based; conditions: Homo sapiens; SU-DHL-2 cells (Table 3); read-out: IC50
Excerpt: as §3, §4

RC-K8 = assay: as above; assay type: cell-based; conditions: Homo sapiens, RCK8; RC-K8 cells (Table 3); read-out: IC50
Excerpt: as §3, §4

DB = assay: as above; assay type: cell-based; conditions: Homo sapiens; DB cells (Table 3)
Excerpt: as §3, §4

Pfeiffer = assay: as above; assay type: cell-based; conditions: Homo sapiens; Pfeiffer cells (Table 3)
Excerpt: as §3, §4

KARPAS-1106P = assay: as above; assay type: cell-based; conditions: Homo sapiens; KARPAS-1106P cells (Table 3); read-out: IC50
Excerpt: as §3, §4

HT = assay: as above; assay type: cell-based; conditions: Homo sapiens; HT cells (Table 3); read-out: IC50
Excerpt: as §3, §4

OCI-Ly10 = assay: as above; assay type: cell-based; conditions: Homo sapiens; OCI-Ly10 cells (Table 3); read-out: IC50
Excerpt: as §3, §4

RIVA = assay: as above; assay type: cell-based; conditions: RIVA cells (Table 3); read-out: IC50
Excerpt: as §3, §4

SU-DHL-16 = assay: as above; assay type: cell-based; conditions: Homo sapiens; SU-DHL-16 cells (Table 3); read-out: IC50
Excerpt: as §3, §4

Farage = assay: as above; assay type: cell-based; conditions: Farage cells (Table 3); read-out: IC50
Excerpt: as §3, §4

OCI-LY-7 = assay: as above; assay type: cell-based; conditions: Homo sapiens, OCI-Ly7; OCI-LY-7 cells (Table 3); read-out: IC50
Excerpt: as §3, §4

SU-DHL-8 = assay: as above; assay type: cell-based; conditions: Homo sapiens; SU-DHL-8 cells (Table 3); read-out: IC50
Excerpt: as §3, §4

SU-DHL-10 = assay: as above; assay type: cell-based; conditions: Homo sapiens, SU-DHL10; SU-DHL-10 cells (Table 3); read-out: IC50
Excerpt: as §3, §4

WSU-DLCL2 = assay: as above; assay type: cell-based; conditions: Homo sapiens, WSUDLCL2; WSU-DLCL2 cells (Table 3); read-out: IC50
Excerpt: as §3, §4

- IC50 (cereblon (CRBN)): 10.2 ± 1 µM
- IC50 (SU-DHL-4 [1]; Homo sapiens, 120 h, SU-DHL-4, 5-day assay, n = 6): 0.032 µM
- ZFP91 Y-constant (ZFP91; 0.75 hours): 41
- DC50 (ZFP91; 0.75 hours): 0.029 µM
- ZFP91 Y-constant (ZFP91; 1 hour): 22
- DC50 (ZFP91; 1 hour): 0.025 µM
- ZFP91 Y-constant (ZFP91; 1.5 hours): 10
- DC50 (ZFP91; 1.5 hours): 0.016 µM
- ZFP91 Y-constant (ZFP91; 3 hours): 4.6
- DC50 (ZFP91; 3 hours): 0.0045 µM
- ZFP91 Y-constant (ZFP91; 4 hours): 4.1
- DC50 (ZFP91; 4 hours): 0.0026 µM
- ZFP91 Y-constant (ZFP91; 24 hours): 2.5
- DC50 (ZFP91; 24 hours): 0.00035 µM
- Aiolos Y-constant (Aiolos; 0.75 hours): 54
- DC50 (Aiolos; 0.75 hours): 0.038 µM
- Aiolos Y-constant (Aiolos; 1 hour): 37
- DC50 (Aiolos; 1 hour): 0.024 µM
- Aiolos Y-constant (Aiolos; 1.5 hours): 15
- DC50 (Aiolos; 1.5 hours): 0.017 µM
- Aiolos Y-constant (Aiolos; 3 hours): 3.5
- DC50 (Aiolos; 3 hours): 0.01 µM
- Aiolos Y-constant (Aiolos; 4 hours): 3.5
- DC50 (Aiolos; 4 hours): 0.0073 µM
- Aiolos Y-constant (Aiolos; 24 hours): 3.8
- DC50 (Aiolos; 24 hours): 0.0053 µM
- Ikaros Y-constant (Ikaros; 0.75 hours): 47.0
- DC50 (Ikaros; 0.75 hours): 0.0397 µM
- Ikaros Y-constant (Ikaros; 1 hour): 34.4
- DC50 (Ikaros; 1 hour): 0.027 µM
- Ikaros Y-constant (Ikaros; 1.5 hours): 15.3
- DC50 (Ikaros; 1.5 hours): 0.0225 µM
- Ikaros Y-constant (Ikaros; 3 hours): 7.3
- DC50 (Ikaros; 3 hours): 0.00888 µM
- Ikaros Y-constant (Ikaros; 4 hours): 5.5
- DC50 (Ikaros; 4 hours): 0.00731 µM
- Ikaros Y-constant (Ikaros; 24 hours): 2.4
- DC50 (Ikaros; 24 hours): 0.0007 µM
SMILES: O=C1CC[C@@H](N2C(=O)c3cccc(NCc4ccc(CN5CC(N6CCOCC6)C5)cc4F)c3C2=O)C(=O)N1 [Compound 2, (R)-2-(2,6-dioxopiperidin-3-yl)-4-((2-fluoro-4-((3-morpholinoazetidin-1-yl)methyl)benzyl)amino)isoindoline-1,3-dione]
- antiproliferative activity (in words) (SU-DHL-4 [1]): Potent antiproliferative activity
- expression of Aiolos, Ikaros, and ZFP91 (SU-DHL-2 cells): decreased expression

SMILES: O=C1CCC(N2C(=O)c3cccc(NCc4ccc(CN5CC(N6CCOCC6)C5)cc4F)c3C2=O)C(=O)N1 (racemic) [Compound 3, 2-(2,6-Dioxopiperidin-3-yl)-4-((2-fluoro-4-((3-morpholinoazetidin-1-yl)methyl)benzyl)amino)isoindoline-1,3-dione]
- antiproliferative activity (in words) (SU-DHL-4 [1]): Potent antiproliferative activity

- IC50 (KARPAS-422): 75 µM
- IC50 (SU-DHL-4 [2]): 145 µM
- IC50 (SU-DHL-2): 355 µM
- IC50 (KARPAS-1106P): 200 µM
- IC50 (OCI-Ly10): 200 µM
- IC50 (SU-DHL-16): 21 µM
- IC50 (OCI-LY-7): 1010 µM
- IC50 (SU-DHL-8): 548 µM
- IC50 (SU-DHL-10): 454 µM
SMILES: CC1(C)CCC(CN2CCN(c3ccc(C(=O)NS(=O)(=O)c4ccc(NCC5CCOCC5)c([N+](=O)[O-])c4)c(Oc4cnc5[nH]ccc5c4)c3)CC2)=C(c2ccc(Cl)cc2)C1 [Venetoclax, 4-(4-{[2-(4-chlorophenyl)-4,4-dimethylcyclohex-1-en-1-yl]methyl}piperazin-1-yl)-N-({3-nitro-4-[(tetrahydro-2H-pyran-4ylmethyl)amino]phenyl}sulfonyl)-2-(1H-pyrrolo[2,3-b]pyridin-5-yloxy)benzamide, reference compound]
- IC50 (U2932): 230 µM
- IC50 (RC-K8): 609 µM
- IC50 (DB): 82 µM
- IC50 (Pfeiffer): 432 µM
- IC50 (HT): 644 µM
- IC50 (RIVA): 5 µM
- IC50 (Farage): 560 µM
- IC50 (WSU-DLCL2): 215 µM
